Patent US9200015B2, “Inositol hexakisphosphate analogs and uses thereof” (priority 2011, dated 2015)
Entries after “also recorded” stand apart in the source; their conditions may differ. Like-named read-outs stand apart in the source and are kept apart here.

How the values were obtained:
TcdA and TcdB holotoxins [1] = format: biochemical, Clostridium difficile; settings: for AC50: read-out: AC50 (concentration that provides half the maximum activity)
Protocol: (§1) In Vitro Testing of Nitroso-InsP6 Derivatives. In vitro testing and measurement of binding affinities of compounds are performed using toxin cleavage assays, and by radioligand or BIACORE-toxin binding studies, respectively. For medium throughput toxin cleavage assays, autocleavage of 1 μg TcdA and TcdB holotoxins is performed in 25 μL 20 mM Tris-HCI, 150 mM NaCI (pH 7.4) with and without InsP6 for 10-60 min at 37° C. (FIG. 6). Cleavage reactions are then stopped with SDS-PAGE loading buffer and boiling at 96° C. for 5 min. Samples are then run under reducing conditions on 4-20% gradient gels and cleavage products stained with GelcodeBiue™ for 1 hr and cleared in water overnight. AC50 and IC50 concentrations are calculated by measuring the relative absorbance of cleavage fragments relative to intact toxin using a LiCor Odyssey infrared scanner (λ=680 nm). Cleavage is plotted against ligand concentration using four-parameter logistic curve fitting on SigmaPlot 11.0 software. If the toxin cleavage efficiency remains unaltered in purified nitroso-InsP6 fractions, then toxin Rac1 glucosylation and cell rounding assays are initiated to evaluate cytoprotection in cell culture systems. […] Thus, enzymatic digestions of nitroso-InsP6 derivatives are carried out with EC 3.1.3.8 (type 3 phytase); EC 3.1.3.72 (type 5 phytase), and EC 3.1.3.26 (type 4/6 phytase) to test whether the NO-modifications are nonhydrolysable (e.g., FIG. 7).

[2] = tested on: C. difficile (strain VPI 10463); assay: Murine CDI model, InsP6 given intragastrically; format: in vivo, C57BL/6 mice; settings: for Protection of mice from CDI (survival): oral/intragastric 0.25 and 2.5 mg/kg/day, 10^6 C. difficile, survival at day 6
Protocol: FIGS. 3A-3D show therapeutic allostery and examples of the assays to test designed compounds. […] (FIGS. 3C-3D) Kaplan-Meier survival plots of infected mice. C57BL/6 mice were inoculated with 10^6 C. difficile.
Optimization of Phytase-Resistant InsP6 Analogues for CDI Therapy. Aspects of the present invention provide compositions and methods of neutralizing C. difficile exotoxins in the extracellular gut environment. […] C57BL/6 mice were administered antibiotics and then orally inoculated with 10^4-to-10^6 C. difficile (strain VPI 10463). Disease outcome measures included evidence of inflammation and fluid secretion in the caecum and colon of severely afflicted animals, and of characteristic pseudomembraneous histopathologic lesions in the colonic mucosa. […] The highest bacterial dose (10^6 CFU) was used to test for InsP6 efficacy given intra-gastrically (0.25-to-2.5 mg/kg/day; range is within the recommended oral daily dose for humans (1,020 mg/day)).

TcdA and TcdB holotoxins [3] = molecular target: TcdA and TcdB holotoxins (Clostridioides difficile, UniProt P18177); format: biochemical, Clostridium difficile
Chain of TcdA and TcdB holotoxins (Clostridioides difficile, UniProt P18177) (P18177 2-2366 limits assumed): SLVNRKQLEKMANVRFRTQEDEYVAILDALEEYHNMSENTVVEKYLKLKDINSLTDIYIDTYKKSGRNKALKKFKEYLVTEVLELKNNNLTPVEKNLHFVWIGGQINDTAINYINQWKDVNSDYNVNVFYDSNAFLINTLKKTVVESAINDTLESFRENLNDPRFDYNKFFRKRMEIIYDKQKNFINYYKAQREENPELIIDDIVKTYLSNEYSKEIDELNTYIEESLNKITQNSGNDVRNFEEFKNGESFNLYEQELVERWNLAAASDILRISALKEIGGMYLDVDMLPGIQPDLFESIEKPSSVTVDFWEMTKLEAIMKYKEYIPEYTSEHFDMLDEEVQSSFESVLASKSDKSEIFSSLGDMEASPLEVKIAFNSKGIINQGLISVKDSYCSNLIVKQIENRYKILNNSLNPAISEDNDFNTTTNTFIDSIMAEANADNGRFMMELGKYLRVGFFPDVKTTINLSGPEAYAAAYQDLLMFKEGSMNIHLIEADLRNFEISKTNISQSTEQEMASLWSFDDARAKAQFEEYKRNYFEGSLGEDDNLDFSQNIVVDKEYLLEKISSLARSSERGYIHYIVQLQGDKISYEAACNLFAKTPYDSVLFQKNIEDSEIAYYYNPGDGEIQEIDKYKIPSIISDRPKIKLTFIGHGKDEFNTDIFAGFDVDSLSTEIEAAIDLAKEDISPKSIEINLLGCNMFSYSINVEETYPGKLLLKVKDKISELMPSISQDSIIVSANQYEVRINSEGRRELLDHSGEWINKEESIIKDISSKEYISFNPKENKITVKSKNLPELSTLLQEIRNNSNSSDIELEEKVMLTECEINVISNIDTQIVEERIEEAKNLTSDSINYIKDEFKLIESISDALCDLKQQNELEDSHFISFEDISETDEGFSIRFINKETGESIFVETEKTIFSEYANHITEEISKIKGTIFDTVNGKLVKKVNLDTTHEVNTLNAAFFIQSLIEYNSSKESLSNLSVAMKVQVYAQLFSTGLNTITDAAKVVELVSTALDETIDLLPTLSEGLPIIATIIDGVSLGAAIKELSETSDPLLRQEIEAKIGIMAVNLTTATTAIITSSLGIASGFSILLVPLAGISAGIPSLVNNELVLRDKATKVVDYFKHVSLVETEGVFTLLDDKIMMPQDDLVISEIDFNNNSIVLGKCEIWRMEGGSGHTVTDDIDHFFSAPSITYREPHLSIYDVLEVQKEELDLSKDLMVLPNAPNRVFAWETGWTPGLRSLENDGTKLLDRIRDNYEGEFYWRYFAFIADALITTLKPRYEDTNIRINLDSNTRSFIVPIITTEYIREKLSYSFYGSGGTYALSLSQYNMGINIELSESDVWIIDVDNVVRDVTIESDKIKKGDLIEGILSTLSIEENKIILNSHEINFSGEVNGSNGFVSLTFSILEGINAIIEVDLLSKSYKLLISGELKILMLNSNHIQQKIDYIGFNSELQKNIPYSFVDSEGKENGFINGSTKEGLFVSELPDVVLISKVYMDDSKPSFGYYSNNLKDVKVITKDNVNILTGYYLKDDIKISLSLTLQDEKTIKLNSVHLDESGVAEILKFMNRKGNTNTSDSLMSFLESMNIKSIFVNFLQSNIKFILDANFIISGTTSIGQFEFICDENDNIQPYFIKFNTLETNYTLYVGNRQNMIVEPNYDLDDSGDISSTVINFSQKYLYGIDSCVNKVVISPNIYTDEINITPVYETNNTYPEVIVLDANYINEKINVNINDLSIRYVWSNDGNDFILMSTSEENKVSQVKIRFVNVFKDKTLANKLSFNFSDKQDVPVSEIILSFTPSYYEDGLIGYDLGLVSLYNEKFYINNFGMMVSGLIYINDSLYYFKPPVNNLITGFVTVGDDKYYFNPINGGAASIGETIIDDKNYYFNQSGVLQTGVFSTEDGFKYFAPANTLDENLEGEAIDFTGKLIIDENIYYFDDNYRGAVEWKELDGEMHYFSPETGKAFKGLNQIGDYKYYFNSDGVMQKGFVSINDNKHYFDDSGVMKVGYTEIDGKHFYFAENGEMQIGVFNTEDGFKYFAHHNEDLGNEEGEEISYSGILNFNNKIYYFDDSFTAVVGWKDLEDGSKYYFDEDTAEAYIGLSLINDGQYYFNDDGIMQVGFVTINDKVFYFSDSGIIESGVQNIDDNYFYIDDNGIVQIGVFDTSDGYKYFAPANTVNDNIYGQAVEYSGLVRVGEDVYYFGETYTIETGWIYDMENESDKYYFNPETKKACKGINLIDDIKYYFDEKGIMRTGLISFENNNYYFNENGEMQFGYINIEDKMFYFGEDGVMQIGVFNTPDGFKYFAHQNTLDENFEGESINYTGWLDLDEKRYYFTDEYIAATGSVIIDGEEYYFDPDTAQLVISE
Protocol: as §1

C. difficile = assay: Experimental CDI model, delivery by implanted mini-osmotic pumps; format: in vivo, mice; settings: 12.5 mg/kg/day by 7 day mini-osmotic pumps, from 1 day before inoculation with 10^6 bacteria
Source text: In this set of experiments, vehicle treatment was associated with 100% mortality, vs. 40% and 10% for InsP6 and nitroso-InsP6 groups, respectively.
Because of the current uncertainty of the nitroso-InsP6 chemistry, there may be potential limitations to oral nitroso-InsP6 delivery as this molecule may show poor colonic bioavailability due to degradation and absorption in the small intestine.

Caco-2 colonocytes = assay: Inhibition of toxin-induced cytotoxicity in Caco-2 colonocytes; format: cell-based; settings: Homo sapiens, FIG. 3A right
phytase = settings: FIG. 7
Protocol: In Vitro Testing of Nitroso-InsP6 Derivatives. In vitro testing and measurement of binding affinities of compounds are performed using toxin cleavage assays, and by radioligand or BIACORE-toxin binding studies, respectively. For medium throughput toxin cleavage assays, autocleavage of 1 μg TcdA and TcdB holotoxins is performed in 25 μL 20 mM Tris-HCI, 150 mM NaCI (pH 7.4) with and without InsP6 for 10-60 min at 37° C. (FIG. 6). Cleavage reactions are then stopped with SDS-PAGE loading buffer and boiling at 96° C. for 5 min. Samples are then run under reducing conditions on 4-20% gradient gels and cleavage products stained with GelcodeBiue™ for 1 hr and cleared in water overnight. AC50 and IC50 concentrations are calculated by measuring the relative absorbance of cleavage fragments relative to intact toxin using a LiCor Odyssey infrared scanner (λ=680 nm). Cleavage is plotted against ligand concentration using four-parameter logistic curve fitting on SigmaPlot 11.0 software. If the toxin cleavage efficiency remains unaltered in purified nitroso-InsP6 fractions, then toxin Rac1 glucosylation and cell rounding assays are initiated to evaluate cytoprotection in cell culture systems. […]

[4] = Table 1, representative inositol analogs

O=P(O)(O)OC1C(O)C(OP(=O)(O)O)C(OP(=O)(O)O)C(OP(=O)(O)O)C1O (stereo not drawn) [Myo-InsP4(2,6), myo-inositol-(1,3,4,5-tetrakisphosphate)]
AC50 (TcdA and TcdB holotoxins [1]; [4]): > 1000 µM

O=P(O)(O)OC1C(O)C(OP(=O)(O)O)C(OP(=O)(O)O)C(OP(=O)(O)O)C1OP(=O)(O)O (stereo not drawn) [Myo-InsP5(1), myo-inositol-(2,3,4,5,6-pentakisphosphate)]
AC50 (TcdA and TcdB holotoxins [1]; [4]): 8.67 µM

O=P(O)(O)OC1C(O)C(OP(=O)(O)O)C(OP(=O)(O)O)C(OP(=O)(O)O)C1OP(=O)(O)O (stereo not drawn) [Myo-InsP5(2), myo-inositol-(1,3,4,5,6-pentakisphosphate)]
AC50 (TcdA and TcdB holotoxins [1]; [4]): 10.5 µM

O[C@H]1[C@H](O)[C@@H](O)[C@H](O)[C@@H](O)[C@H]1O [myo-inositol, (1R,2R,3S,4S,5R,6S)-cyclohexane-1,2,3,4,5,6-hexol]
Protection of mice from CDI (survival) [2]: not evident

O=P(O)(O)OC1C(O)C(OP(=O)(O)O)C(OP(=O)(O)O)C(OP(=O)(O)O)C1OP(=O)(O)O (stereo not drawn) [Myo-InsP5(3), myo-inositol-(1,2,4,5,6-pentakisphosphate)]
AC50 (TcdA and TcdB holotoxins [1]; [4]): 95.6 µM

O=P(O)(O)OC1C(O)C(OP(=O)(O)O)C(OP(=O)(O)O)C(OP(=O)(O)O)C1O (stereo not drawn) [Myo-InsP4(4,6), myo-inositol-(1,2,3,5-tetrakisphosphate)]
AC50 (TcdA and TcdB holotoxins [1]; [4]): > 1000 µM

O=P(O)(O)OC1[C@H](OP(=O)(O)O)[C@H](OP(=O)(O)O)C(O)[C@H](OP(=O)(O)O)[C@H]1OP(=O)(O)O (stereo partly drawn) [Myo-InsP5(4), myo-inositol-(1,2,3,5,6-pentakisphosphate)]
AC50 (TcdA and TcdB holotoxins [1]): > 1000 µM

inositolhexakissulfate [InS6]
Toxin cleavage activity (preliminary studies) (TcdA and TcdB holotoxins [1]): active compound

O=P(O)(O)O[C@H]1[C@H](OP(=O)(O)O)[C@@H](OP(=O)(O)O)[C@H](OP(=O)(O)O)[C@@H](OP(=O)(O)O)[C@H]1OP(=O)(O)O [Myo-InsP6, myo-inositol-hexakisphosphate]
Statistical significance of the protective effect ([2]; 2.5 mg/kg group): statistically significant
Protection of mice from CDI (survival) [2]: dose dependently protects mice from CDI; also recorded: dose-dependent protective effects
AC50 (TcdA and TcdB holotoxins [1]): 14.8 µM
IC50, C. difficile toxins autocleaved (TcdA and TcdB holotoxins [3]; FIGS. 3A-3B): 10 µM
AC50, toxin autocleavage (TcdA and TcdB holotoxins [3]; TcdB, FIG. 3A left): 10 µM
Mortality (C. difficile): 40%
IC50 (Caco-2 colonocytes): 10 µM

OP(O)(=S)OC1C(OP(O)(O)=S)C(OP(O)(O)=S)C(OP(O)(O)=S)C(OP(O)(O)=S)C1OP(O)(O)=S [Myo-InsP6(S), myo-inositol-(1,2,3,4,5,6-phosphorothioate)]
Phytase resistance (phytase): increased phytase resistance
AC50 (TcdA and TcdB holotoxins [1]; [4]): 1.99 µM

(1/3)-phospho-myo-inositol hexaakisphosphate [Myo-InsP7(1/3)]
AC50 (TcdA and TcdB holotoxins [1]; [4]): 3.04 µM
